“Also recorded” adds a separate entry of the source.
Legend:
[1] = chemical stability in aqueous solutions; format: physicochemical; conditions: over broad pH range
[2] = stability on incubation with hepatocyte cell lines; format: in vitro ADME
[3] = system: PGE2 production by cell lines; assay: PGE2 production by cell lines; format: cell-based
[4] = system: HMGB1 and proinflammatory cytokines; assay: renal IRI model: HMGB1 and cytokine levels; format: in vivo; conditions: mice
Method: (§1) Mice were anesthetized with isoflurane using a vaporizer and placed on a heating pad to maintain their body temperature at 37° C. Both renal arteries were identified through dorsal incisions and clamped for 20, 30, 35, or 37 minutes. Reperfusion was confirmed visually upon release of the clamps. Surgical wounds were closed, and mice were administered 1 mL of saline i.p. The mice were kept in a warm incubator until they regained consciousness and were allowed to recover with ad libitum access to food and water. […] Serum and kidney tissue were collected 24 hours after renal IRI.
Inflammatory cytokine mRNA and protein levels were measured by real-time PCR and ELISA, respectively. Kidney tissue and serum were harvested after reperfusion for 24 h. Total RNA was extracted from frozen kidney tissue using TRIzol reagent (15596018; Invitrogen), according to the manufacturer's protocol. RNA was converted to cDNA using oligo-dT primers. IL-17, TNF-α, and […] levels were determined by real-time PCR with SYBR green PCR Master Mix and the primers listed in Table 1. For ELISA, frozen kidney tissues were homogenized in phosphate buffer. Serum IL-17 (M1700; R&D Systems), TNF-α (MTAOOB; R&D Systems), and IL-10β (MLBOOC; R&D Systems) were measured using commercial ELISA kits according to the manufacturer's instructions.

[5] = system: endogenous PGE2 levels in kidney tissue; assay: endogenous PGE2 levels in kidney tissue after i.p. injection; format: in vivo; conditions: mice
Method: […] Next, the kidney tissues (˜20 mg) were homogenized in 500 μL of cold PBS containing indomethacin (10 μg/mL) using a tissue homogenizer. The suspension was sonicated in an ice-water bath for 1 minute using cycles of 10 seconds of sonication with 10 seconds of cooling, and they were then centrifuged for 10 minutes at 12,000 rpm. The supernatant was collected for PGE2 assay. Protein concentrations were determined by BCA assay (23225; Thermo Scientific). The PGE2 level in the supernatant was measured using a PGE2 ELISA Kit (SKGE004B; R&D Systems) in triplicate. PGE2 levels were expressed as ng PGE2/mg protein.

[6] = system: malondialdehyde (MDA); assay: renal IRI model: malondialdehyde (MDA) in kidney tissue; format: in vivo; conditions: IRI mice, single pre-IRI dose; vehicle peak 48% at 2 hours
Method: Mice were anesthetized with isoflurane using a vaporizer and placed on a heating pad to maintain their body temperature at 37° C. Both renal arteries were identified through dorsal incisions and clamped for 20, 30, 35, or 37 minutes. Reperfusion was confirmed visually upon release of the clamps. Surgical wounds were closed, and mice were administered 1 mL of saline i.p. The mice were kept in a warm incubator until they regained consciousness and were allowed to recover with ad libitum access to food and water. […]
Reactive oxygen species (ROS) levels were determined by measurement of malondialdehyde (MDA), the end product of lipid peroxidation in […]. Free MDA reacts with thiobarbituric acid (TBA) at 95° C. to generate an MDA-TBA adduct, which can be quantified colorimetrically at a wavelength of 532 nm. MDA levels were measured in kidney lysates using a lipid peroxidation (MDA) assay kit (ab118970; Abcam). Results were corrected for total protein level and are expressed as […].

[7] = system: mice with ischemic AKI; assay: renal IRI model: necrotic and apoptotic cell death in the outer medulla; format: in vivo
Method: as §1
To evaluate necrosis, 5-μm-thick paraffin sections were stained with H&E. Tubular injury was scored semi quantitatively according to a scoring system by a pathologist who examined at least 20 separate fields (×400) in the outer medulla, which is the zone most sensitive to ischemic injury. The scoring system was as follows: 0, no damage; 1, patchy isolated unicellular necrosis; 2, tubular necrosis <25%; 3, tubular necrosis 25-50%; and 4, tubular necrosis >50%. At least 20 consecutive high-power fields (magnification, ×400) per section were scored by two operators blind to the details of the experiment. To analyze the frequency of apoptosis, 5-μm-thick paraffin sections were subjected to terminal deoxynucleotidyl transferase-mediated dUTP nick-end labeling (TUNEL) assay (APT110; Millipore) according to the manufacturer's protocol. TUNEL-positive cells were counted in at least five separate fields (×640 magnification) in the outer medulla, and the apoptosis index (%, number of apoptosis cells/total number of cells) was calculated using GENASIS software.

[8] = stability on incubation with hepatocyte extracts; format: in vitro ADME
[9] = system: mice with ischemic AKI; assay: survival and body weight over 7 days after renal IRI; format: in vivo; conditions: bilateral IRI 30 minutes, 5 mg/kg i.p. once pre-IRI then twice daily for 7 days
Method: (A) Experimental setup for toxicity. Ischemic AKI induced by bilaterally clamping the renal arteries for 30 minutes, followed by reperfusion. […] (n=10 per group). (B, C) Survival curves and body weight over 7 days. Kaplan-Meier analysis of survival stratified by AKI stage. Data are means±SEM. *P<0.05 vs. corresponding BI30_vehicle.

[10] = system: cAMP/AMP/adenosine signaling pathway; assay: renal IRI model: cAMP, AMP and adenosine levels; format: in vivo; conditions: IRI mice
Method: as §1
After reperfusion for 24 hours, kidney tissues were harvested, homogenized in 10 volumes of 0.1 M HCl, and centrifuged for 10 minutes at 12,000 rpm. The protein concentration was determined by BCA assay. cAMP levels in kidney tissues were measured using a cAMP Complete ELISA Kit (ADI-900-163; Enzo Life Science) an adenosine Assay Kit (KA4547; abnova) and high-performance liquid chromatography (HPLC).

[11] = real-time PCR and ELISA, 3 doses 5 mg/kg
[12] = real-time PCR at POD1, vs IRI-vehicle

CCCC[S+]([O-])c1sc2nc(-c3cccs3)cc(-c3ccccc3)c2c1N (stereo not drawn) [SW033291]
chemical stability in aqueous solutions [1]: chemically stable
chemical stability when incubated with hepatocyte cell lines [2]: chemically stable
PGE2 production by cell lines [3]: increase PGE2 production by cell lines
IL-1B protein ([4]; ELISA, 3 doses 5 mg/kg): reductions
reduction of HMGB1 protein level compared to the IRI-vehicle group ([4]; kidney tissue, western blot, 3 doses 5 mg/kg): 30%
induction of IL-17 [4, 11]: blockade of induction
induction of TNF-α [4, 11]: blockade of induction
IL-24 mRNA [4, 12]: significantly induces
anti-inflammatory cytokine IL-4 mRNA [4, 12]: significantly induces
anti-inflammatory cytokine IL-10 mRNA [4, 12]: significantly induces
level of PGE2 in kidney tissue, time course ([5]; 5 mg/kg i.p., 1 and 3 hours): peaked at 1 hour at nearly twice as high as at baseline
endogenous PGE2 levels in kidney tissue ([5]; 3 hours after i.p. 2.5 or 5 mg/kg, vs vehicle): in dose-dependent fashion, upregulated
increase of malondialdehyde (MDA) above baseline [6]: 14%
histologic renal injury score ([7]; 3 doses 5 mg/kg i.p., POD1, H&E, outer medulla): reducing
count of TUNEL positive apoptotic cells ([7]; 3 doses 5 mg/kg i.p., POD1, outer medulla): reducing
tissue congestion in the outer medulla (gross pathology) ([7]; 3 doses 5 mg/kg i.p., POD1, vs IRI-vehicle): ameliorated
renal injury (histopathology, tubular injury) ([7]; 3 doses 5 mg/kg, POD1, 5 mg/kg): markedly alleviated renal injury; also recorded: more effective than systemic administration of either exogenous PGE1 or PGE2
chemical stability when incubated with hepatocyte extracts [8]: chemically stable
body weight at POD7 [9]: regained greater weights than did vehicle treated mice
survival [9]: survived at 7 days
levels of adenosine in the kidney [10]: increased
levels of serum adenosine [10]: significantly increased
AMP level in kidney tissue ([10]; decrease after IRI vs sham): substantially reversed
cAMP level in kidney tissue ([10]; decrease after IRI vs sham): substantially reversed

— patent US20250325524A1, “COMPOSITIONS AND METHODS FOR TREATING RENAL INJURY” (CASE WESTERN RESERVE UNIVERSITY, priority 2018, published 2025)
